For twelve compounds, IC50 and EC50 results are on record in paper PMC5550455, “Unusual Inner-Salt Guaiazulene Alkaloids and bis-Sesquiterpene from the South China Sea Gorgonian Muriceides collaris” (Scientific Reports, 2017).

The test system of test [1] is A549 human tumor cell line. Kind of test: Cytotoxicity assay, MTT method, A549. The class given is cell-based. On the procedure:
The cytotoxicity of Fr. […] The IC50 value of each compound was calculated by Reed and Muench’s method. Experiments were repeated three times and carried out in triplicate.

Test [2] concerns HeLa human tumor cell line. Kind of test: Cytotoxicity assay, MTT method, HeLa. The class given is cell-based. From the text:
(§1) A frozen specimen of Muriceides collaris (9.6 kg, wet weight) was homogenized and then extracted with MeOH four times (each time, 3 days) at room temperature. The combined solutions were concentrated in vacuo and the concentrated extract was subsequently desalted by redissolving with MeOH to yield a residue (221 g). The crude extract was subjected to silica gel vacuum liquid chromatography (VLC), eluting with a gradient of petroleum/acetone (from 10:0 to 1:1, v:v) and subsequently CH2Cl2/MeOH (from 20:1 to 0:1, v-v) to obtain nine fractions (Fr.A−Fr.I). Each fraction was detected by TLC, and was tested for their cytotoxicity against HeLa and K562 cell lines at 50 μg/mL. […] Fr.G (3.5 g) was then subjected to a Sephadex LH-20 column eluted with CH2Cl2/MeOH (1:1, v/v) to give […]. Fr.G-3 (1.018 g) was separated by silica gel CC (CH2Cl2/MeOH, 30:1, v-v) to give six subfractions (Fr.G-3-1 to Fr.G-3-6). Fr.G-3-2 (223 mg) was purified by ODS CC with a gradient of MeOH/H2O (from 20% to 100%) to yield four subfractions (Fr.G-3-2-1 to Fr.G-3-2-4). Fr.G-3-2-3 (25.0 mg) was purified by semi-preparative HPLC (ODS, 5 μm, 250 × 10 mm; MeOH/H2O, 65:35, v/v; 1.5 mL/min) to afford muriceidines A (1, 10.3 mg) and B (2, 9.6 mg). Fr.G-3-4 (137 mg) was purified by ODS column chromatograph with a gradient of MeOH/H2O (from 20% to 100%) to yield four subfractions (Fr.G-3-4-1 to Fr.G-3-4-4). And Fr.G-3-4-1 (9.6 mg) was further purified by semi-preparative HPLC (ODS, 5 μm, 250 × 10 mm; MeOH/H2O, 60:40, v/v; 1.5 mL/min) to afford muriceidine C (3, 4.6 mg). Similarly, muriceidone A (4, 3.7 mg) and the co-isolated known 3-formylguaiazulene (6, 9.1 mg) was obtained in subfraction Fr. […] And GA (5, 1.5 mg) was obtained in subfraction Fr. […] Chiral seperations of partial 2 [Daicel Chiralpack IB, 5 μm, 4.6 mm × 250 mm], 3 [Daicel Chiralpack IC, 5 μm, 4.6 mm × 250 mm; MeOH, 1.5 mL/min], and 4 [Daicel Chiralpack IC, 5 μm, 4.6 mm × 250 mm; Hexane/isopropyl alcohol 97:3, 1.5 mL/min] were performed on Agilent analytical HPLC system to afford optically pure (+)-2 (0.9 mg), (−)-2 (1.2 mg), (+)-3 (2.5 mg), (−)-3 (2.2 mg), (+)-4 (1.5 mg), and (−)-4 (1.6 mg) (Fig. S1).
(§2) The cytotoxicity of Fr. A–I against K562 and HeLa cell lines and compounds 1–4 against K562, HeLa, A-549, and HL-60 human tumor cell lines were determined by MTT method with Adriamycin as a positive control. The IC50 value of each compound was calculated by Reed and Muench’s method. Experiments were repeated three times and carried out in triplicate.
On the technique in general: Tetrazolium assays rely on reduction of a dye to a coloured formazan, in cell work by metabolically active cells.

Test [3] has as its system K562 human tumor cell line. Kind of test: Cytotoxicity assay, MTT method, K562. The class given is cell-based.
Source text: as §1, §2

Test [4] concerns HL-60 human tumor cell line. Kind of test: Cytotoxicity assay, MTT method, HL-60. It is filed as cell-based. To be noted: HL-60 cell line. On the procedure: as §2
Test [5] has as its system larvae of the barnacle Balanus albicostatus. Kind of test: Antifouling assay, barnacle larval settlement and mortality. It is filed as in vivo, Balanus albicostatus Pilsbry. Conditions: Fistulobalanus albicostatus, read-out: EC50 antifouling activity (50% of larval population inhibited to settle). How it is done:
The antifouling activity of compounds 1–6 against larval of the barnacle Balanus albicostatus Pilsbry were determined according to the literature. EC50 was calculated as the concentration where 50% of the larval population was inhibited to settle as compared to the control while LC50 was calculated as the concentration where 50% of the larval population was dead. Experiments were repeated three times and carried out in triplicate.

[6] abbreviates: Homo sapiens, HL-60, MTT method.

In brackets after ≈: the same amount, converted by molar mass. Like-named read-outs stand apart in the source and are kept apart here.

As for `Cc1cc(/C=C2/C(C(=O)O)=NCCC2O)c2c(C)ccc(C(C)C)cc1-2` (racemic) [compound 2, (±)-Muriceidine B], the IC50 is over 100 µM in test [1] (Homo sapiens); over 100 µM in test [2] (Homo sapiens, HeLa); over 100 µM in test [3] (Homo sapiens, K562, MTT method); over 100 µM in test [4] (setting [6]).

For the compound `COC1CCN=C(C(=O)O)/C1=C/c1cc(C)c2cc(C(C)C)ccc(C)c1-2` (racemic) [compound 3, (±)-Muriceidine C], the IC50 in test [1] (Homo sapiens) was 82.7 µM; in test [2] (Homo sapiens, HeLa), over 100 µM; in test [3] (Homo sapiens, K562, MTT method) it was 3.68 µM; in test [3] (MTT method), 3.7 µM; in test [4] (setting [6]), 2.19 µM; in test [4] (MTT method) it was 2.2 µM.

As to `CC1=CC(=O)C2(C3C(=O)c4c(cc(C(C)C)c(C=O)c4C)C3(C)O)C(C)=CC=C(C(C)C)C=C12` (racemic) [compound 4, (±)-Muriceidone A], the IC50 in test [1] (Homo sapiens) was over 100 µM; in test [2] it was over 100 µM; in test [3] (Homo sapiens, K562, MTT method), over 100 µM; in test [4] (setting [6]), over 100 µM.

As for `CC1=CC(=O)C2(C3C(=O)c4c(cc(C(C)C)c(C=O)c4C)C3(C)O)C(C)=CC=C(C(C)C)C=C12` (single isomer, unassigned; (+)) [(+)-4], the IC50 in test [1] is over 100 µM; in test [2] it was 42.7 µM; in test [3] (MTT method), 88.4 µM; in test [4] (MTT method), 54.2 µM.

Regarding `CC1=CC(=O)C2(C3C(=O)c4c(cc(C(C)C)c(C=O)c4C)C3(C)O)C(C)=CC=C(C(C)C)C=C12` (single isomer, unassigned; (-)) [(−)-4], the IC50 in test [1] was over 100 µM; in test [2], 40 µM; in test [3] (MTT method), over 100 µM; in test [4] (MTT method), over 100 µM.

In the case of `Cc1cc(/C=C2/C(C(=O)O)=NCC[C@@H]2O)c2c(C)ccc(C(C)C)cc1-2` [(+)-2], the IC50 is over 100 µM in test [1] (Homo sapiens); over 100 µM in test [2] (Homo sapiens, HeLa); over 100 µM in test [3] (Homo sapiens, K562, MTT method); over 100 µM in test [4] (setting [6]).

For the compound `CO[C@H]1CCN=C(C(=O)O)/C1=C/c1cc(C)c2cc(C(C)C)ccc(C)c1-2` [(+)-3], the IC50 in test [1] (Homo sapiens) is over 100 µM; in test [2] (Homo sapiens, HeLa), 53.7 µM; in test [3] (Homo sapiens, K562, MTT method) it was 47.2 µM; in test [4] (setting [6]), 22.7 µM.

Regarding `Cc1cc(/C=C2/C(C(=O)O)=NCC[C@H]2O)c2c(C)ccc(C(C)C)cc1-2` [(−)-2], the IC50 in test [1] (Homo sapiens) is over 100 µM; in test [2] (Homo sapiens, HeLa) it was over 100 µM; in test [3] (Homo sapiens, K562, MTT method) it was over 100 µM; in test [4] (setting [6]) it was over 100 µM.

`CO[C@@H]1CCN=C(C(=O)O)/C1=C/c1cc(C)c2cc(C(C)C)ccc(C)c1-2` [(−)-3]: the IC50 is over 100 µM in test [1] (Homo sapiens); 53.2 µM in test [2] (Homo sapiens, HeLa); 53.2 µM in test [3] (Homo sapiens, K562, MTT method); 5.08 µM in test [4] (setting [6]); 5.1 µM in test [4] (MTT method).

For `COc1cccc2c1C(=O)c1c(O)c3c(c(O)c1C2=O)C[C@@](O)(C(=O)CO)C[C@@H]3O[C@H]1C[C@H](N)[C@H](O)[C@H](C)O1` [Adramycin, Adriamycin, reference compound], the IC50 in test [1] (Homo sapiens) was 0.6 µM; in test [2] (Homo sapiens, HeLa) it was 0.6 µM; in test [3] (Homo sapiens, K562, MTT method) it was 0.2 µM; in test [4] (setting [6]) it was 0.3 µM.

For `Cc1cc(/C=C2\CCCN=C2C(=O)O)c2c(C)ccc(C(C)C)cc1-2` [compound 1, Muriceidine A], the IC50 in test [1] (Homo sapiens) was over 100 µM; in test [2] (Homo sapiens, HeLa) it was 17.9 µM; in test [3] (Homo sapiens, K562, MTT method) it was 8.37 µM; in test [3] (MTT method), 8.4 µM; in test [4] (setting [6]), over 100 µM. Also, the EC50 in test [5] was found to be 11.9 µg/mL (≈ 35.5 µM).

For `Cc1cc(C=O)c2c(C)ccc(C(C)C)cc1-2` [compound 6, 3-formyl guaiazulene], the EC50 in test [5] amounted to 2.39 µg/mL (≈ 10.6 µM).

What is called IC50 is the point on the concentration scale where inhibition reaches its midpoint. Higher therefore signals weaker potency in that assay. In general, EC50 refers to the concentration needed to bring the measured effect to its halfway point.
